US5319085A, “Quinoline derivative having serotonin-3 receptor antagonizing activity” (priority 1990, dated 1994)

Columns and labels:
ddY strain male mice = test: Acute toxicity, minimum lethal dose; format: in vivo; details: mortality for 7 days
Method: The test Compound was orally and intraperitoneally administered to ddY strain male mice weighing 20 to 25 g. MLD (Minimum Lethal Dose) was determined by observing the mortality for 7 days after the administration.

[1] = system: Cisplatin-induced vomiting; test: Activity against Cisplatin-induced vomiting; format: in vivo, Suncus mirinus; details: for Number of Vomiting (mean ± S.E.M.): 5 to 120 minutes; for Latency (min.) (mean ± S.E.M.): time to first vomiting
Method: Female and male Suncus mirinus animals weighing 23 to 68 g were used, one group consisting of 5 to 10 animals. According to the method of Matsuki et al. (Japan J. Pharmacol., 48, 303 (1988)], the animals were isolated in metal mesh cage (one animal/one cage). One hour after, the test compound or physiological saline (control) was intraperitoneally administered (i.p.) in a volume of 10 ul/g of body weight. Further 30 minutes after administration of the test compound, Cisplatin (20 or 40 mg/kg) was intraperitoneally administered. After administration of Cisplatin, a time period (latency) for the first vomiting and the number of frequencies of vomiting caused in the period of 5 to 120 minutes after administration, were determined. The latency and the number of frequencies in the test compound administered group were compared with those in the control group. The test of significance was performed by Student's t-test.

5HT3 receptor = 5HT3 receptor binding test, [3H] quipazine, NG108-15 cell membrane fraction; parameters: species or system rat; details: for Inhibition Rate (%) (Concentration 10^-7 M) / Inhibition Rate (%) (Concentration 10^-8 M): inhibition of 2 nM [3H] quipazine binding; for Ki: [3H] quipazine, Cheng Prusoff equation, 37° C., 60 minutes
Method: Using rat neuroblastoma-glyoma NG108-15 cell membrane fraction, the binding activities of the test compounds to 5HT3 receptor were examined.
A membrane fraction of NG108-15 cells was prepared according to the method of Neijt et al. [Naunyn-Schmiedeberg's Arch. Parmacol. 337, 493-499 (1988)].
The receptor binding experiment was performed using [^3 H] quipazine [J. Neurochem., 52, 1787 (1989)], a high affinity ligand to 5HT3 receptor.
A membrane fraction obtained from 4×10^5 NG108-15 cells was suspended in 1 ml of 20 mM Tris-hydrochloride buffer (pH 7.5) containing 154 mM sodium chloride. Then, 2 nM [^3 H] quipazine (2519.7 GBq/mmol; Du Pont Co., Ltd.) and various concentrations of the test compound were added to the suspension followed by incubating at 37° C. for 60 minutes. Then, 4 ml of an ice-cooled buffer was added to terminate the reaction and then the mixture was filtered through CF/C glass fiber filter (Whatmann Co., Ltd.). The filter was washed with the buffer, and put in a scintillation vial. Scintisol EX-H (Wako Pure Chemicals, Inc.) was added to the scintillation vial. Radioactivity on the filter was counted in a liquid scintillation counter.
An inhibition rate of the [^3 H] quipazine binding for the test compound was estimated according to the equation; [formula]
Ki values were estimated based on the resultant inhibition rates according to the Cheng Prusoff equation.
In this test, the comparison was made between Compound (I) and Compound C disclosed in Japanese Published Unexamined Patent Application No. 72886/85 as the reference compound.

[2] = 0.1 mg/kg i.p., Cisplatin 40 mg/kg
[3] = 0.3 mg/kg i.p., Cisplatin 40 mg/kg
[4] = 1.0 mg/kg i.p., Cisplatin 40 mg/kg
[5] = 10.0 mg/kg i.p., Cisplatin 40 mg/kg
[6] = 0.01 mg/kg i.p., Cisplatin 20 mg/kg
[7] = 0.03 mg/kg i.p., Cisplatin 20 mg/kg
[8] = 0.1 mg/kg i.p., Cisplatin 20 mg/kg
[9] = 0.3 mg/kg i.p., Cisplatin 20 mg/kg
[10] = 1.0 mg/kg i.p., Cisplatin 20 mg/kg

Structure (SMILES)	MLD (Minimum Lethal Dose) (ddY strain male mice; i.p.) [mg/kg]	MLD (Minimum Lethal Dose) (ddY strain male mice; p.o.) [mg/kg]	Inhibition Rate (%) (Concentration 10^-7 M) (5HT3 receptor)	Ki (5HT3 receptor) [nM]	Inhibition Rate (%) (Concentration 10^-8 M) (5HT3 receptor)	also measured
CN1[C@@H]2CC[C@H]1C[C@@H](OC(=O)c1cnc3ccccc3c1O)C2 [5S'a, Endo-(8-methyl-8-azabicyclo[3.2.1]oct-3-yl) 4-hydroxy-3-quinolinecarboxylate]	> 300	> 100	107	6.1		Number of Vomiting (mean ± S.E.M.) [1, 2]: 29.6 ± 3.5; Latency (min.) (mean ± S.E.M.) [1, 2]: 41.4 ± 0.7 min; Number of Vomiting (mean ± S.E.M.) [1, 3]: 13.2 ± 4.8; Latency (min.) (mean ± S.E.M.) [1, 3]: 69.6 ± 13.4 min; Number of Vomiting (mean ± S.E.M.) [1, 4]: 4.3 ± 2.4; Latency (min.) (mean ± S.E.M.) [1, 4]: 103.5 ± 10.3 min; Number of Vomiting (mean ± S.E.M.) [1, 5]: 7.6 ± 7.6; Latency (min.) (mean ± S.E.M.) [1, 5]: 105.1 ± 14.9 min
CN1[C@@H]2CCC[C@H]1C[C@@H](OC(=O)c1cnc3ccccc3c1)C2 [CSa, Endo-(9-methyl-9-azabicyclo[3.3.1]non-3-yl) 3-quinolinecarboxylate, reference compound]			84	29	12	
CCCCOc1cc(C(=O)O[C@H]2C[C@H]3CC[C@@H](C2)N3C)c2ccccc2n1 [Compound 1Sa, Endo-(8-methyl-8-azabicyclo[3.2.1]oct-3-yl) 2-n-butoxy-4-quinolinecarboxylate]	200	100	104	0.39	99	
CCCOc1cc(C(=O)O[C@H]2C[C@H]3CC[C@@H](C2)N3C)c2ccccc2n1 [Compound 2Sa, Endo-(8-methyl-8-azabicyclo[3.2.1]oct-3-yl) 2-n-propoxy-4-quinolinecarboxylate]	100	100	104	0.32	101	
CC(C)Oc1cc(C(=O)O[C@H]2C[C@H]3CC[C@@H](C2)N3C)c2ccccc2n1 [Compound 3Sa, Endo-(8-methyl-8-azabicyclo[3.2.1]oct-3-yl) 2-isopropoxy-4-quinolinecarboxylate]	200	> 100	104	0.31	101	
COc1cc(C(=O)O[C@H]2C[C@H]3CC[C@@H](C2)N3C)c2ccccc2n1 [Compound 4Sa, Endo-(8-methyl-8-azabicyclo[3.2.1]oct-3-yl) 2-methoxy-4-quinolinecarboxylate]	200	50	104	0.58	98	
CN1[C@@H]2CC[C@H]1C[C@@H](NC(=O)c1cnc3ccccc3c1O)C2 [Compound 6Sa, Endo-N-(8-methyl-8-azabicyclo[3.2.1]oct-3-yl)-4-hydroxy-3-quinolinecarboxamide]	> 300	> 100	101	2.1	89	Number of Vomiting (mean ± S.E.M.) [1, 6]: 10.0 ± 4.0; Latency (min.) (mean ± S.E.M.) [1, 6]: 58.2 ± 9.9 min; Number of Vomiting (mean ± S.E.M.) [1, 7]: 8.2 ± 1.4; Latency (min.) (mean ± S.E.M.) [1, 7]: 52.6 ± 4.2 min; Number of Vomiting (mean ± S.E.M.) [1, 8]: 7.4 ± 2.6; Latency (min.) (mean ± S.E.M.) [1, 8]: 85.7 ± 9.7 min; Number of Vomiting (mean ± S.E.M.) [1, 9]: 0.0 ± 0; Latency (min.) (mean ± S.E.M.) [1, 9]: 120.0 ± 0 min; Number of Vomiting (mean ± S.E.M.) [1, 10]: 0.0 ± 0; Latency (min.) (mean ± S.E.M.) [1, 10]: 120.0 ± 0 min
CC(C)COc1cc(C(=O)O[C@H]2C[C@H]3CC[C@@H](C2)N3C)c2ccccc2n1 [Compound 7Sa, Endo-(8-methyl-8-azabicyclo[3.2.1]oct-3-yl) 2-isobutoxy-4-quinolinecarboxylate]	300	> 100	108	0.44	101	
CCCCCOc1cc(C(=O)O[C@H]2C[C@H]3CC[C@@H](C2)N3C)c2ccccc2n1 [Compound 8Sa, Endo-(8-methyl-8-azabicyclo[3.2.1]oct-3-yl) 2-n-pentyloxy-4-quinolinecarboxylate]	> 300	> 100	97	0.86	94	
CCCCCCOc1cc(C(=O)O[C@H]2C[C@H]3CC[C@@H](C2)N3C)c2ccccc2n1 [Compound 9Sa, Endo-(8-methyl-8-azabicyclo[3.2.1]oct-3-yl) 2-n-hexyloxy-4-quinolinecarboxylate]	> 300	50	97	3.2	74	
CCOc1cc(C(=O)O[C@H]2C[C@H]3CC[C@@H](C2)N3C)c2ccccc2n1 [Compound 10Sa, Endo-(8-methyl-8-azabicyclo[3.2.1]oct-3-yl) 2-ethoxy-4-quinolinecarboxylate]	100	50	99	0.88	96	
